Literature values in patent publication US20030220374A1, “Compositions and methods of treatment involving peroxisome proliferator-activated receptor-gamma agonists and cyclooxygenase-2 selective inhibitors” (Pharmacia Corporation, priority 2002, published 2003).
Values belong to the molecule of their own block, whether it stands above or below them.

Legend:
PPARγ = target: T1, PPARγ (Homo sapiens, UniProt P37231)
T1 sequence (P37231 1-505): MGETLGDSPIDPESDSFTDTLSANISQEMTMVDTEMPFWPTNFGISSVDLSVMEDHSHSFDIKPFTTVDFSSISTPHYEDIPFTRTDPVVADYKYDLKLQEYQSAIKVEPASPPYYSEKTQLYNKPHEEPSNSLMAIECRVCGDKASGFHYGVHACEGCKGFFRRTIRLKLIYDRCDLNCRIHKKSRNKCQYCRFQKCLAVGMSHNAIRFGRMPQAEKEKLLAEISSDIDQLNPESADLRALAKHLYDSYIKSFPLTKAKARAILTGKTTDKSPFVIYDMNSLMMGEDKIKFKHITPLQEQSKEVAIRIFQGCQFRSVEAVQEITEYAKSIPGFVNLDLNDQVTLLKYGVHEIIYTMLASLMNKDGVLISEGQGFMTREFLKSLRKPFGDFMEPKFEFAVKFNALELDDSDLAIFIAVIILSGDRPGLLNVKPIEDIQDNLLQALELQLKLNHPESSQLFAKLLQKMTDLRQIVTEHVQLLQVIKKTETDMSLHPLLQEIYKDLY

[1] = tested on: fibroblast growth factor-induced corneal angiogenesis; conditions: rats
[2] = tested on: hepatocellular cancer cells
[3] = tested on: vascular smooth muscle cell
human carotid arteries = conditions: in vivo
human lung cancer cells = conditions: through the induction of apoptosis

EC50 (PPARγ): 160 nM
SMILES: COc1ccc2nc(COc3ccc(CC4SC(=O)NC4=O)cc3)n(C)c2c1 (stereo not shown) [CS-011, CI-1037]

SMILES: Cc1ccc(-c2cc(C(F)(F)F)nn2-c2ccc(S(N)(=O)=O)cc2)cc1 [Celecoxib, 4-[5-(4-methylphenyl)-3-(trifluoromethyl)-1H-pyrazol-1-yl]benzenesulfonamide]
inhibition of fibroblast growth factor-induced corneal angiogenesis [1]: potent inhibition

SMILES: Cc1c(C)c2c(c(C)c1O)CCC(C)(COc1ccc(CC3SC(=O)NC3=O)cc1)O2 (single isomer, unassigned; (+)) [Troglitazone, (+)-5-[[4-[(3,4-dihydro-6-hydroxy-2,5,7,8-tetramethyl-2H-1-benzopyran-2-yl)methoxy]phenyl]methyl]-2,4-thiazolidinedione]
growth inhibition of hepatocellular cancer cells [2]: marked growth inhibition | vascular smooth muscle cell growth [3]: inhibits | hyperplasia of human carotid arteries (human carotid arteries): decreases | growth of human lung cancer cells (human lung cancer cells): inhibited the growth

SMILES: CCCCC/C=C\C=C1\C(=O)C=C[C@@H]1C/C=C\CCCC(=O)O [15-deoxy-Δ^12,14-prostaglandin J2, 11-oxo-prosta-5Z,9,12E,14Z-tetren-1-oic acid]
growth inhibition of hepatocellular cancer cells [2]: marked growth inhibition
